Data published in patent US12293809B2, “Workflow for generating compounds with biological activity against a specific biological target” (INSILICO MEDICINE IP LIMITED, priority 2019, dated 2025).
pIC50: −log10 of the molar value. Read-outs that look alike come from different tables or passages of the source. Blank lines part the entries; values can stand above or below the compound they belong to.

What was measured:
[1] = molecular target: T1, eEF-2K (Homo sapiens, UniProt O00418); test: scanMAX Delta Kinase Panel (Eurofins), single concentration; type: biochemical; conditions: 10 μM; highest inhibition within the panel
T1 construct: purchased Eurofins 50-100KP10
Experimental: The issue of selectivity is of vital importance for a lead compound to estimate possible off-target effects that can influence the pre-clinical evaluation success. […] DDR1 kinase is mostly expressed in epithelial cells, whereas the expression of DDR2 is generally observed in […]. Even though that the prevention of fibrosis is the primary goal, the selectivity over DDR2 kinase is also a very important consideration.
The experimental procedures were performed by Eurofins. The activity of the molecules against hDDR1 and hDDR2 kinases was assessed using KinaseProfiler^67. The enzyme sample was incubated with 8 mM MOPS buffer (pH=7.0), 0.2 mM EDTA, […] target protein hDDR1 and hDDR2 kinases, 10 mM Magnesium acetate/Manganese chloride, respectively, and [γ-^33P]-ATP. The enzymatic reaction processed in the presence of Mg^2+ cations and ATP at room temperature for 40 minutes and terminated by addition of phosphoric acid. The reaction mixture (10 μL) was spotted onto a P30 filtermat and washed four times using 0.425% phosphoric acid and once with methanol. All the compounds were prepared in 100% DMSO. […] The biological evaluation of selectivity against non-target kinases was performed in Dundee Eurofins, using Scan Max Delta Panel [10 μM ATP] KinaseProfiler^68.

[2] = Mouse PK study, IV administration; type: in vivo; conditions: IV 10 mg/kg, M01-M03 individual
[3] = log D 7.4; type: physicochemical; conditions: TFA salt
Experimental: Since Compound 2 contains an imidazolidine fragment typically unusual in drug discovery we experimentally assessed key properties for this molecule. […] The inhibition activity of Compounds 1 and 2 towards a small panel of key cytochrome P450 (CYP450) isoforms was also assessed in vitro (Table 2).

[4] = test system: α-actin (α-SMA) production in LX-2 cells; test: LX-2 fibrosis assay, TGF-β stimulated (Western blot); type: cell-based, human; conditions: 14 nM
Experimental: Collagen α1, α-SMA, CTGF and GAPDH were traced using Western blot analysis.
After 20 h growth in the reduced serum medium, the cells were treated with indicated doses of compounds for 30 minutes.

[5] = Microsomal stability (MLM)
Experimental: Cold acetonitrile (ACN) including 100 ng/mL Tolbutamide and 100 ng/mL Labetalol as internal standard (IS) were used for stop solution. 10 μL compound or control working solution/well was added to all plates (T0, T5, T10, T20, T30, T60, NCF60) except matrix blank. Dispense 80 μL/well microsome solution was added to every plate by Apricot, the mixture of microsome solution and compound were incubated at 37° C. for about 10 min. After pre-warming, dispense 10 μL/well NADPH regenerating system was added to every plate by Apricot to start reaction. The solution was then incubated at 37° C. 300 (μL/well) stop solution (cold in 4° C.) was added to terminate the reaction. The sampling plates were shaken for approximately 10 min. Samples were centrifuged at 4000 rpm for 20 min under 4° C. While centrifuging, 8×new 96-well plate were loaded with 300 μL HPLC water, then 100 μL supernatant was transferred and mixed for LC/MS/MS.

[6] = molecular target: T2, hDDR1 (Homo sapiens, UniProt Q08345); test: KinaseProfiler radiometric biochemical kinase assay (Eurofins); parameters: purchased Eurofins 14-942KP10
Experimental: The experimental procedures were performed by Eurofins. The activity of the molecules against hDDR1 and hDDR2 kinases was assessed using KinaseProfiler^67. […] The enzymatic reaction processed in the presence of Mg^2+ cations and ATP at room temperature for 40 minutes and terminated by addition of phosphoric acid. […] All the compounds were prepared in 100% DMSO. […] The biological evaluation of selectivity against non-target kinases was performed in Dundee Eurofins, using Scan Max Delta Panel [10 μM ATP] KinaseProfiler^68.

[7] = 10 μM
Experimental: Test compounds (at 10 μM) were incubated at 25° C. with 50 mM phosphate buffer, pH=7.4 and 8 mM MOPS pH 7.0, 0.2 mM EDTA, pH=7.0. Duplicate samples were used. […] Curcumin was used as positive control in this assay at neutral-basic condition. Samples were analyzed by LC/MS/MS, disappearance of test compound was assessed based on peak area ratios of analyte/IS (no standard curve).

[8] = molecular target: T2, hDDR1; test: Rescreen in another biochemical assay (Thermo Fisher-PR6913A); conditions: read-out: IC50 towards DDR1 kinase, rescreen
Experimental: In the present example, six molecules were generated, selected, and synthesized and were submitted for biological testing (e.g., within 35 days). […] Since the dose-response curves for Compounds 2 and 4 seemed likely inconsistent, additional experiments were performed to confirm the activity of these molecules towards DDR1 kinase (see FIG. 4B). […] Compounds 1 and 2 were also evaluated towards DDR2 kinase.
FIGS. 4A-4B show the structures and dose-response curves for the generated molecules. The six generated compounds were tested in a dose-dependent manner against DDR1 tyrosine kinase.

T2 sequence (Q08345 19-913): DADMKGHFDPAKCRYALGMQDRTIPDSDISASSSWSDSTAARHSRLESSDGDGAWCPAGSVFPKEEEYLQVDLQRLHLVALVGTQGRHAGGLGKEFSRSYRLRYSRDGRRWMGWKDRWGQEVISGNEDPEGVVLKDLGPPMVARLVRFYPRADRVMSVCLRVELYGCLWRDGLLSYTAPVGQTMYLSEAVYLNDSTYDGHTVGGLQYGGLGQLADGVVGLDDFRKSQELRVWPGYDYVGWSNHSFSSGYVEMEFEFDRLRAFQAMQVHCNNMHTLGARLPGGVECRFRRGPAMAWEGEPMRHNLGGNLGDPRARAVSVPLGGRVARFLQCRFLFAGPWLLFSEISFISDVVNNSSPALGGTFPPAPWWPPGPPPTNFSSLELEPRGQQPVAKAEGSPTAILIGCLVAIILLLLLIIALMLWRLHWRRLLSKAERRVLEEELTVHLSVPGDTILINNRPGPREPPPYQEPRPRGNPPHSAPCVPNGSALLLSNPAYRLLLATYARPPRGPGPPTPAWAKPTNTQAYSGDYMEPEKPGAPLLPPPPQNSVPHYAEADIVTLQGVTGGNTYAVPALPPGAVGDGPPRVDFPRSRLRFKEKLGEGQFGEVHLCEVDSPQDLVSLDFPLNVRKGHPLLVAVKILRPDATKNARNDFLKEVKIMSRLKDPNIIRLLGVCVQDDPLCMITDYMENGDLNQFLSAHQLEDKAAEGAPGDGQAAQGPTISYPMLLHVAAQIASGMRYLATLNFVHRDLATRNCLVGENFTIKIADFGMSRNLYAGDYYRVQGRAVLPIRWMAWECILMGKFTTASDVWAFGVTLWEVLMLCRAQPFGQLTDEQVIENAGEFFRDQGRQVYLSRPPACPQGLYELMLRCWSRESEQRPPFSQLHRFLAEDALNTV

- INH % [1]: 37%
- Tlast ([2]; c4 Mean): 24.0 ± — h
- AUC0-inf ([2]; c4 Mean ± SD): 6888 ± 359 ng·h/mL
- AUC0-last ([2]; c4 Mean ± SD): 6830 ± 349 ng·h/mL
- AUCExtra ([2]; c4 Mean ± SD): 0.845 ± 0.104%
- AUMCExtra ([2]; c4 Mean ± SD): 5.42 ± 0.663%
- C0 ([2]; c4 Mean ± SD): 2598 ± 572 ng/mL
- Cl ([2]; c4 Mean ± SD): 19.1 ± 0.970 mL/min/kg
- MRT0-inf ([2]; c4 Mean ± SD): 4.56 ± 0.193 h
- MRT0-last ([2]; c4 Mean ± SD): 4.35 ± 0.187 h
- T1/2 ([2]; c4 Mean ± SD): 3.65 ± 0.123 h
- Vdss ([2]; c4 Mean ± SD): 5.21 ± 0.349 L/kg
Structure (SMILES): Cc1ccc2c(Nc3cccc(C(F)(F)F)c3)noc2c1C#Cc1cnc2cccnn12 [Compound 1]

Structure (SMILES): O=C(Nc1cccc(C(=O)N2CCN(c3ccnc4[nH]ccc34)C2)c1)c1cccc(C(F)(F)F)c1 [Compound 2]
- log D 7.4 [3]: 4.07
- inhibition of α-SMA [4]: 15%
- CLint(mic) ([5]; MLM 0.5): 91.8
- T1/2 ([5]; mouse, microsomes): 0.252 h
- Remaining (*NCF = 60 min) ([5]; mouse, microsomes, 1 h): 86.0%
- Remaining (T = 60 min) ([5]; mouse, microsomes, 1 h): 5.3%
- activity against DDR1 kinase (in words) [6]: low nanomolar range
- LE** = 1.4*(pIC50)/N ([6]; N number of heavy atoms): 0.31
- pIC50 ([6]; read-out: IC50, inhibition of DDR1 activity): 7.68
- % Remain ([7]; 8 mM MOPS pH 7.0, 0.2 mM EDTA, pH 7.0, 0 min): 100.00%
- % Remain ([7]; 8 mM MOPS pH 7.0, 0.2 mM EDTA, pH 7.0, 120 min): 101.41%
- % Remain ([7]; 8 mM MOPS pH 7.0, 0.2 mM EDTA, pH 7.0, 240 min): 103.81%
- % Remain ([7]; 8 mM MOPS pH 7.0, 0.2 mM EDTA, pH 7.0, 360 min): 106.18%
- % Remain ([7]; 8 mM MOPS pH 7.0, 0.2 mM EDTA, pH 7.0, 1440 min): 105.37%
- % Remain ([7]; 50 mM phosphate buffer, pH 7.4, 0 min): 100.00%
- % Remain ([7]; 50 mM phosphate buffer, pH 7.4, 120 min): 100.65%
- % Remain ([7]; 50 mM phosphate buffer, pH 7.4, 240 min): 97.05%
- % Remain ([7]; 50 mM phosphate buffer, pH 7.4, 360 min): 100.07%
- % Remain ([7]; 50 mM phosphate buffer, pH 7.4, 1440 min): 107.23%
- pIC50 [8]: 7.43
